Results from article PMC11190158, “Study on the design, synthesis, and activity of anti-tumor staple peptides targeting MDM2/MDMX” (Frontiers in Chemistry, 2024).
pIC50: −log10 of the molar value. Values after ≈ are worked out from the molar mass of the structure shown. “Also recorded” adds a separate entry of the source. Positions of bridges follow the written chain, without caps; N, C: chain ends. Non-standard residues stand in square brackets, D forms with d. Residues, ends and D or L forms follow the SMILES beside them. S5 = C=CCCC[C@](C)(N)C(=O)O

Tests used:
[1] = system: U251; experiment: Apoptosis assay (Annexin V/PI, flow cytometry); assay type: cell-based, human; conditions: U251, 20 μM, 36 h (legend; method 24 h), mean
[2] = system: U87 MG
[3] = system: HCT116 p53^+/+; conditions: 72 h
[4] = system: tumor cells; experiment: Cytotoxicity / cell viability assay (CCK-8), cell line not given; assay type: cell-based, human; conditions: for anti-proliferative / tumor suppressive activity (in words): HCT116 p53^+/+, HCT116 p53−/−, U87 and U251 cell viability experiments, versus template straight-chain peptide; for concentration at which in vitro anti-tumor activity was exhibited: compared to linear peptide M3-1, cell line not named
Protocol: Human colon cancer cell lines HCT116 p53^+/+, HCT116 p53^−/−, U87 MG, and U251 were maintained in McCoy’s 5A Medium supplemented with 10% heat-inactivated FCS and 1% penicillin–streptomycin at 37°C, 5% CO2, and under complete humidification conditions. The cells (3×10^3 cells/well) were inoculated in 96-well plates and treated with different concentrations of polypeptides for 72 h. The absorbance at 450 nm was then measured using the CCK-8 Kit, and the percentage of cell survival was calculated based on the ratio of the sample well to the reference well A450.

[5] = system: U87 MG; experiment: Apoptosis assay (Annexin V/PI, flow cytometry); assay type: cell-based, human; design: LR / UR / LR+UR: unit not given here; conditions: for LR+UR: total apoptosis
Protocol: Fluorescent probes were used to detect normal viable cells, apoptotic cells, and necrotic cells by double labeling of cells, and the morphological characteristics of the apoptotic cells were explored. A Petri dish with 8–90% confluence was taken from the incubator. Tumor cells were collected, and the cells were counted under the microscope through the cell slide. A cell suspension of the appropriate concentration was prepared. Different concentrations of peptide samples were added according to the experimental group. Three compound wells were set up in each group; the control group was set up without peptides, and the blank group was set up without cells. […] Then, 2 μL of PI solution was added before placing it on the machine, and one tube without dye was used as a negative control. On-machine assays were performed with flow cytometry. […] Total apoptosis = LR region + UR region.

[6] = system: U251
[7] = system: U251; experiment: Apoptosis assay (Annexin V/PI, flow cytometry); assay type: cell-based, human; design: LR / UR / LR+UR: unit not given here; conditions: for LR+UR: total apoptosis
Protocol: Fluorescent probes were used to detect normal viable cells, apoptotic cells, and necrotic cells by double labeling of cells, and the morphological characteristics of the apoptotic cells were explored. A Petri dish with 8–90% confluence was taken from the incubator. Tumor cells were collected, and the cells were counted under the microscope through the cell slide. A cell suspension of the appropriate concentration was prepared. Different concentrations of peptide samples were added according to the experimental group. Three compound wells were set up in each group; the control group was set up without peptides, and the blank group was set up without cells. Then, 300 μL of Binding Buffer was added after 24 h of dosing, and 2 μL of Annexin V was added to each tube, pipetted to mix it well, and then incubated at room temperature in the dark for 15 min. Then, 2 μL of PI solution was added before placing it on the machine, and one tube without dye was used as a negative control. On-machine assays were performed with flow cytometry. […] Total apoptosis = LR region + UR region.

[8] = Circular dichroism, degree of helicity; assay type: physicochemical; conditions: CD, PB pH 7.2, 10–50 mmol/L peptide, ambient temperature, 1-mm path length, 185–255 nm
Protocol: The staple peptides were soluble in PB with a pH of 7.2 at a concentration of 10–50 mmol/L. CD experiments were performed using a Jasco J-715 Spectropolarimeter at ambient temperature. A quartz cuvette with a 1-mm path length was used for the spectrum collection (wavelength, 185–255 nm; step resolution, 0.0001 mm; speed, 1.2 μm/h; accumulations, 6; and bandwidth, 0.0001 mm). We calculated the helicity of each peptide using Eq.

[9] = circular dichroism; conditions: phosphate buffer (PB); pH 7.2; ns °C; 10-50 (printed mmol/L, probably uM)
[10] = system: HCT116 p53^−/−; conditions: 72 h
[11] = system: MDMX; design: method as in 2 sources, one per row (each row's own in cited_ref): ref Zhan and Lu, 2011; Brown et al., 2013; Wade et al., 2013 ||| ref Zhan et al., 2012a; Zhan et al., 2012b; Li et al., 2021; conditions: in words, surface plasmon resonance and fluorescence polarization, ref Zhan et al., 2012a, 2012b, Li et al., 2021; cited from earlier work
[12] = system: MDM2; design: method as in 2 sources, one per row (each row's own in cited_ref): ref Zhan and Lu, 2011; Brown et al., 2013; Wade et al., 2013 ||| ref Zhan et al., 2012a; Zhan et al., 2012b; Li et al., 2021; conditions: in words, surface plasmon resonance and fluorescence polarization, ref Zhan et al., 2012a, 2012b, Li et al., 2021; cited from earlier work
[13] = 20 μM, 36 h (legend; method 24 h), Annexin V/PI, mean
[14] = U251, 5 μM, sample 9 (replicate 1)
[15] = U251, 5 μM, sample 10 (replicate 2)
[16] = U251, 10 μM, sample 11 (replicate 1)
[17] = U251, 10 μM, sample 12 (replicate 2)
[18] = U251, 20 μM, sample 13 (replicate 1)
[19] = U251, 20 μM, sample 14 (replicate 2)

## CSCC[C@H](NC(=O)[C@H](CC(C)C)NC(=O)[C@]1(C)CCCC=CCCC[C@](C)(NC(=O)[C@H](CC(C)C)NC(=O)[C@H](Cc2ccccc2)NC(=O)[C@@H](NC(=O)[C@H](CC(C)C)NC(=O)[C@H](CCCCN)NC(C)=O)[C@@H](C)O)C(=O)N[C@@H](Cc2ccc(O)cc2)C(=O)N[C@@H](Cc2c[nH]c3ccccc23)C(=O)N[C@@H](C)C(=O)N1)C(=O)N[C@@H](CCC(N)=O)C(=O)N[C@@H](CCCCN)C(N)=O [SM3-4] (Ac-KLTFL[S5]YWA[S5]LMQK-NH2; staple 6-10)
[1]
  LR: apoptotic cells: 5.885%
  UR: dead cells: 11.23%
[2]; 72 h
  pIC50: 5.11
  minimum inhibitory concentration: 8 µM (≈ 14.7 µg/mL)
[3]
  pIC50: 4.11
[4]
  anti-proliferative / tumor suppressive activity (in words): significantly improved; also recorded: strongest anti-proliferative activity
  concentration at which in vitro anti-tumor activity was exhibited: 25 µM
[5]; 5 μM, sample 1 (replicate 1)
  LR: 1.25
  UR: 3.07
  LR+UR: 4.32
[5]; 5 μM, sample 2 (replicate 2)
  LR: 1.04
  UR: 3.27
  LR+UR: 4.31
[5]; 10 μM, sample 3 (replicate 1)
  LR: 1.11
  UR: 6.12
  LR+UR: 7.23
[5]; 10 μM, sample 4 (replicate 2)
  LR: 2.02
  UR: 3.16
  LR+UR: 5.18
[5]; [13]
  LR: apoptotic cells: 29.91%
  UR: dead cells: 42.285%
[5]; 20 μM, sample 5 (replicate 1)
  LR: 26.96
  UR: 37.58
  LR+UR: 64.54
[5]; 20 μM, sample 6 (replicate 2)
  LR: 32.86
  UR: 46.99
  LR+UR: 79.85
[5]; 5, 10 and 20 μM
  apoptotic effect (in words): significant apoptotic effect
[6]; 72 h
  pIC50: 4.83
  minimum inhibitory concentration: 16 µM (≈ 29.3 µg/mL)
[7]; [14]
  LR: 0.89
  UR: 2.73
  LR+UR: 3.62
[7]; [15]
  LR: 0.47
  UR: 1.92
  LR+UR: 2.39
[7]; [16]
  LR: 1.47
  UR: 1.92
  LR+UR: 3.39
[7]; [17]
  LR: 1.12
  UR: 1.94
  LR+UR: 3.06
[7]; [18]
  LR: 6.85
  UR: 8.8
  LR+UR: 15.65
[7]; [19]
  LR: 4.92
  UR: 13.66
  LR+UR: 18.58
[7]; U251, 5, 10 and 20 μM
  apoptotic effect (in words): significant apoptotic effect
[8]
  helicity: 28.96%
[9]
  helicity: 29%
[10]
  pIC50: 4.48

## CSCC[C@H](NC(=O)[C@H](CC(C)C)NC(=O)[C@H](CCC(N)=O)NC(=O)[C@H](C)NC(=O)[C@H](Cc1c[nH]c2ccccc12)NC(=O)[C@]1(C)CCCC=CCCC[C@](C)(NC(=O)[C@H](CC(C)C)NC(=O)[C@H](CCCCN)NC(C)=O)C(=O)N[C@@H](Cc2ccccc2)C(=O)N[C@@H](CC(C)C)C(=O)N[C@@H](CCC(=O)O)C(=O)N1)C(=O)N[C@@H](CCC(N)=O)C(=O)N[C@@H](CCCCN)C(N)=O [SM3-2] (Ac-KL[S5]FLE[S5]WAQLMQK-NH2; staple 3-7)
[2]; 72 h
  pIC50: 4.51
[2]; U87 MG tumor cells, CCK-8
  concentration at which in vitro anti-tumor activity was exhibited: 25 µM
[3]
  pIC50: 4.46
[4]
  anti-proliferative / tumor suppressive activity (in words): significantly improved
  concentration at which in vitro anti-tumor activity was exhibited: 25 µM
[6]; 72 h
  pIC50: 4.31
[6]; U251 tumor cells, CCK-8
  concentration at which in vitro anti-tumor activity was exhibited: 50 µM
[8]
  helicity: 5.85%
[9]
  helicity: 5.85%
[10]
  pIC50: 4.62

## LTFLEYWAQLMQ [PMI-M3]
[11]
  binding to MDMX: binds well
[12]
  binding to MDM2: binds well
